{"source": "patent US20260226085A1", "about": "“HETEROCYCLIC COMPOUNDS AS WRN INHIBITORS” (Synnovation Therapeutics, Inc., priority 2023, published 2026)"}
{"test_system": "SW48 colorectal cancer cells", "experiment": "Cell-Titer Glo measurement of growth-inhibitory activity in SW48 cells", "assay_type": "cell-based", "conditions": "Homo sapiens, 120 h, cell viability on day 5, Cell-titer Glo, baseline subtracted, 4PL fit, read-out: SW48_GI50", "procedure": "Example A. Cell-Titer Glo Measurement of Growth-Inhibitory Activity in SW48 Cells\nThis cell-based assay measures growth-inhibitory activity of selected WRN inhibitors in SW48 colorectal cancer cells. SW48 cell line (#CCL-231) was purchased from American type culture collection (ATCC). Cells were cultured following ATCC instructions. The base medium for this cell line is ATCC-formulated Leibovitz's L-15 Medium (#30-2008). To prepare complete medium, fetal bovine serum was added at a final concentration of 10%. Antibiotics including penicillin and streptomycin (#SV30010) were purchased from Cytiva and added into complete medium to prevent bacteria contamination. Cells with a passage number of below 20 were used in this cell-based assay. One day before the assay, cells were resuspended in complete medium and seeded into 96-well plates at a final density of 2000 cells per well. One extra plate was added to measure baseline viability on day 1 before compound treatment. Baseline cell viability was measured using Promega Cell-titer Glo reagent (#G7573) following the protocol provided by the manufacture. Compounds were dissolved in DMSO at a stock concentration of 10 mmol/L. Three-fold serial dilution was performed using DMSO to prepare master plates. Compounds were further diluted using complete medium and added into assay plates. The final concentration of DMSO was 0.2% in assay plates. Cell viability was measured on day 5 using Promega Cell-titer Glo reagent following the same protocol provided by the manufacture. Assay plates were kept on orbital shaker (300 rounds per min) for 2 min and then kept in 37° C. incubator for another 10 minutes. Cell-titer Glo luminescence signal was measured using i3x plate reader. Baseline cell viability was subtracted for growth inhibition 50 (GI50) estimate using GraphPad Prism following the four-parameter logistic (4PL) curve-fitting mathematical model.", "units": {"GI50": "nM"}}
{"smiles": "CCc1c(N2CCN(C(=O)c3c(O)ccc4cccnc34)CC2)c(=O)n2nc(C3=CCOCC3)nc2n1CC(=O)Nc1ccc(C(F)(F)F)cc1Cl", "note": "[Example 5, N-[2-chloro-4-(trifluoromethyl)phenyl]-2-[2-(3,6-dihydro-2H-pyran-4-yl)-5-ethyl-6-[4-(7-hydroxyquinoline-8-carbonyl)piperazin-1-yl]-7-oxo-[1,2,4]triazolo[1,5-a]pyrimidin-4-yl]acetamide]", "GI50": "< 100"}
{"smiles": "CCc1c(N2CCN(Cc3ncccc3O)CC2)c(=O)n2nc(N3CCC4(CCCO4)CC3)nc2n1CC(=O)Nc1ccc(C(F)(F)F)cc1Cl", "note": "[Example 7, N-(2-chloro-4-(trifluoromethyl)phenyl)-2-(5-ethyl-6-(4-((3-hydroxypyridin-2-yl)methyl)piperazin-1-yl)-7-oxo-2-(1-oxa-8-azaspiro[4.5]decan-8-yl)-[1,2,4]triazolo[1,5-a]pyrimidin-4(7H)-yl)acetamide]", "GI50": "1000 to 5000"}
{"smiles": "CCc1c(N2CCN(C(=O)c3c(O)ccc4cccnc34)CC2)c(=O)n2nc(N3CCC4(CCCO4)CC3)nc2n1CC(=O)Nc1ccc(C(F)(F)F)cc1Cl", "note": "[Example 6, N-(2-chloro-4-(trifluoromethyl)phenyl)-2-(5-ethyl-6-(4-(7-hydroxyquinoline-8-carbonyl)piperazin-1-yl)-7-oxo-2-(1-oxa-8-azaspiro[4.5]decan-8-yl)-[1,2,4]triazolo[1,5-a]pyrimidin-4(7H)-yl)acetamide]", "GI50": "100 to 1000"}
{"smiles": "CCc1c(N2CCN(C(=O)c3c(O)ccc4cccnc34)CC2)c(=O)n2nc(-c3ccc(S(C)(=O)=O)cc3)nc2n1CC(=O)Nc1ccc(C(F)(F)F)cc1Cl", "note": "[Example 8, N-(2-Chloro-4-(trifluoromethyl)phenyl)-2-(5-ethyl-6-(4-(7-hydroxyquinoline-8-carbonyl)piperazin-1-yl)-2-(4-(methylsulfonyl)phenyl)-7-oxo-[1,2,4]triazolo[1,5-a]pyrimidin-4(7H)-yl)acetamide]", "GI50": "< 100"}
{"smiles": "CCc1c(N2CCN(Cc3ncccc3O)CC2)c(=O)n2nc(C3=CCOCC3)nc2n1CC(=O)Nc1ccc(C(F)(F)F)cc1Cl", "note": "[Example 4, N-[2-chloro-4-(trifluoromethyl)phenyl]-2-[2-(3,6-dihydro-2H-pyran-4-yl)-5-ethyl-6-[4-[(3-hydroxy-2-pyridyl)methyl]piperazin-1-yl]-7-oxo-[1,2,4]triazolo[1,5-a]pyrimidin-4-yl]acetamide]", "GI50": "100 to 1000"}
{"smiles": "CCc1c(N2CCN(C(=O)c3ncc4ccccc4c3O)CC2)c(=O)n2nc(C3=CCOCC3)nc2n1CC(=O)Nc1ccc(C(F)(F)F)cc1Cl", "note": "[Example 1, N-[2-Chloro-4-(trifluoromethyl)phenyl]-2-[2-(3,6-dihydro-2H-pyran-4-yl)-5-ethyl-6-[4-(4-hydroxyisoquinoline-3-carbonyl)piperazin-1-yl]-7-oxo-[1,2,4]triazolo[1,5-a]pyrimidin-4-yl]acetamide]", "GI50": "< 100"}
{"smiles": "CCc1c(N2CCN(C(=O)c3nc4ccccc4cc3O)CC2)c(=O)n2nc(C3=CCOCC3)nc2n1CC(=O)Nc1ccc(C(F)(F)F)cc1Cl", "note": "[Example 2, N-[2-Chloro-4-(trifluoromethyl)phenyl]-2-[2-(3,6-dihydro-2H-pyran-4-yl)-5-ethyl-6-[4-(3-hydroxyquinoline-2-carbonyl)piperazin-1-yl]-7-oxo-[1,2,4]triazolo[1,5-a]pyrimidin-4-yl]acetamide]", "GI50": "< 100"}
{"smiles": "CCc1c(N2CCN(Cc3ncccc3O)CC2)c(=O)n2nc(-c3ccc(S(C)(=O)=O)cc3)nc2n1CC(=O)Nc1ccc(C(F)(F)F)cc1Cl", "note": "[Example 9, N-(2-Chloro-4-(trifluoromethyl)phenyl)-2-(5-ethyl-6-(4-((3-hydroxypyridin-2-yl)methyl)piperazin-1-yl)-2-(4-(methylsulfonyl)phenyl)-7-oxo-[1,2,4]triazolo[1,5-a]pyrimidin-4(7H)-yl)acetamide]", "GI50": "100 to 1000"}
{"smiles": "CCc1c(N2CCN(Cc3ncccc3O)CC2)c(=O)n2nc(-c3ccc(P(C)(C)=O)cc3)nc2n1CC(=O)Nc1ccc(C(F)(F)F)cc1Cl", "note": "[Example 10, N-(2-Chloro-4-(trifluoromethyl)phenyl)-2-(2-(4-(dimethylphosphoryl)phenyl)-5-ethyl-6-(4-((3-hydroxypyridin-2-yl)methyl)piperazin-1-yl)-7-oxo-[1,2,4]triazolo[1,5-a]pyrimidin-4(7H)-yl)acetamide]", "GI50": "< 100"}
